These results are taken from patent US20250325520A1, “Methods for Targeting Cancer Cells Using Amino Acids” (University of Denver, priority 2024, published 2025).

For series [1], the system named is PANC-1 subcutaneous pancreatic tumor. The experiment in a line: Subcutaneous PANC-1 xenograft in nude mice. The format is in vivo. Particulars: AA oral gavage daily, GEM intraperitoneal twice a week, n=5, FIG. 32.
Procedure: In particular, the xenograft model was established with six to eight-week-old male nude mice (J:NU-Foxn1nu) purchased from The Jackson Laboratory (Bar Harbor, ME). […] The pancreatic cancer tumor was injected subcutaneously into the left flank of each mouse with 4×10^6 PANC-1 cells suspended in 100 μl of serum-free media with 50% […] ® matrix to establish a subcutaneous pancreatic tumor.
Mice were observed three times daily for the first seven days and tumor xenograft was confirmed by the presence of the tumor. […] Tumor volume and mice weight were measured every fifth day. Tumor volume was established by measuring length and width; the volume formula used was the modified ellipsoid volume formula (½ length×width 2).
For AA and control groups, treatment was given by oral gavage. AA treatment was made from a combination of histidine (44 mg/ml) and isoleucine (22 mg/ml) dissolved in PBS. For the two groups with AA, oral gavage treatment was administered daily with 200 μl AA treatment using a 20 ga polypropylene feeding tube attached to a syringe. For the control group, oral gavage treatment was administered using the same method except with 200 μl PBS. For the GEM and AA+GEM groups, GEM was given by intraperitoneal injection. GEM groups were injected twice a week with 200 μl of GEM (15 mg/ml) dissolved in PBS. All treatments were administered for sixty days. […]
Series [2] relates to PANC-1 and MIA PaCa-2 (malignant pancreas epithelial) cells. The experiment in a line: Cell viability / cytotoxicity (CCK-8) on PDAC tumor cells. The format is cell-based, human. Particulars: for cytotoxic efficacy on tumor cells / viability dose response of tumor cells: individual amino acid, 48 hours, FIGS. 7, 8. As to the method:
(§1) Malignant pancreatic cell lines (PANC-1 and MIA PaCa-2) and nonmalignant human pancreas cell line (HPNE) were obtained from the American Type Culture Collection (Manassas, Virginia). The cells were cultured in DMEM medium (HYCLONE™ sera, available from GE Healthcare Life Sciences) with HPNE cells having 0.1 ng/ml EGF (Novus Biologicals, USA) included. All cultures were supplemented with 10% fetal bovine serum (FBS, Life Technology, Thermo Fisher Scientific Inc.), penicillin (1 U), and streptomycin (1 μg/ml). All cells were maintained in a humidified incubator with 5% CO2 at 37° C. All cell lines were cultured in triplicate under the same conditions, then harvested to collect independent exosome samples. Cells were seeded in 96-well plates at a density of 10^4 cells/well. After 24 hours, culture medium with increasing concentrations of treatment was added to the treatment group for 48 hours. Cell viability was accessed by Cell Counting Kit-8 (CCK-8; Dojindo Laboratories) following the manufacturer's instructions. Briefly, a mixture of 10 μl of CCK-8 and 190 μl media was added into each well and the cells were incubated for another 1 hour. The absorbance of each well was measured at 450 nm using a microplate reader. Each experiment was repeated six times.

Series [3] is described as follows: pH change of the media caused by amino acid addition. It counts as physicochemical. Particulars: culture media, FIG. 6.
The test system of series [4] is hTert-HPNE (nonmalignant pancreas epithelial) cells. The series is described as follows: Cell viability / cytotoxicity (CCK-8) on nontumor cells. It counts as cell-based, human. Particulars: individual amino acid, 48 hours, FIGS. 7, 8. As to the method:
as §1

Consider `Nc1ccn([C@@H]2O[C@H](CO)[C@@H](O)C2(F)F)c(=O)n1` [GEM, gemcitabine, reference compound], for which, in series [1], the “antitumor efficacy (tumor volume)” value was “showed antitumor efficacy”. In series [2] (AA compared with GEM, FIG. 13), the “time-dependent cytotoxicity to tumor cells” value is “faster efficacy and is more tumoricidal effective”.

`N=C(N)NCCC[C@H](N)C(=O)O` [arginine, reference compound]: the “pH change caused by amino acid addition” value in series [3] is “significant pH change”.

As for `CC[C@H](C)[C@H](N)C(=O)O` [isoleucine], the “cell viability of nontumor cells” value in series [4] is given as “no significant difference in cell viability”. Moreover, in series [3], the “pH change caused by amino acid addition” value is “trivial impact”. For the same molecule, in series [2], the “cytotoxic efficacy on tumor cells” value is reported as “selective cytotoxic efficacy” and the “viability dose response of tumor cells” value is “monotonic dose response”.

As to `N[C@@H](Cc1c[nH]cn1)C(=O)O` [histidine], the “cell viability of nontumor cells” value in series [4] is given as “no significant difference in cell viability”. For the same molecule, the “pH change caused by amino acid addition” value in series [3] was “trivial impact”. Further, in series [2], the “cytotoxic efficacy on tumor cells” value was “selective cytotoxic efficacy” and the “viability dose response of tumor cells” value is given as “monotonic dose response”.

Turning to `N[C@@H](CS)C(=O)O` [cysteine, reference compound], the “pH change caused by amino acid addition” value in series [3] is on record as “significant pH change”.
